Measurements reported in patent US8741912B2, “Deazapurines useful as inhibitors of Janus kinases” (Vertex Pharmaceuticals Incorporated, priority 2006, dated 2014).

How the values were obtained:
[1] = molecular target: JAK-2 enzyme (Homo sapiens, UniProt O60674); assay: JAK2 inhibition assay (33P incorporation into poly(Glu)4Tyr); assay type: biochemical; conditions: 15 μM poly(Glu)4Tyr, 12 μM ATP
Protocol: (§1) Compounds were screened for their ability to inhibit JAK3 using the assay shown below. Reactions were carried out in a kinase buffer containing 100 mM HEPES (pH 7.4), 1 mM DTT, 10 mM MgCl2, 25 mM NaCl, and 0.01% BSA. Substrate concentrations in the assay were 5 μM ATP (200 uCi/μmole ATP) and 1 μM poly(Glu)4Tyr. Reactions were carried out at 25° C. and 1 nM JAK3.
(§2) To each well of a 96 well polycarbonate plate was added 1.5 μl of a candidate JAK3 inhibitor along with 50 μl of kinase buffer containing 2 μM poly(Glu)4Tyr and 10 μM ATP. This was then mixed and 50 μl of kinase buffer containing 2 nM JAK3 enzyme was added to start the reaction. After 20 minutes at room temperature (25° C.), the reaction was stopped with 50 μl of 20% trichloroacetic acid (TCA) that also contained 0.4 mM ATP. The entire contents of each well were then transferred to a 96 well glass fiber filter plate using a TomTek Cell Harvester. After washing, 60 μl of scintillation fluid was added and ^33P incorporation detected on a Perkin Elmer TopCount.
The assays were as described above in Example 36 except that JAK-2 enzyme was used, the final poly(Glu)4Tyr concentration was 15 μM, and final ATP concentration was 12 μM.

[2] = molecular target: T1, JAK3 (Homo sapiens, UniProt P52333); assay: JAK3 inhibition assay (33P incorporation into poly(Glu)4Tyr); assay type: biochemical; conditions: 1 nM JAK3; 1 μM poly(Glu)4Tyr, 5 μM ATP, 25° C.; read-out: JAK3 enzyme inhibition (Ki)
T1 sequence (P52333 1-1124): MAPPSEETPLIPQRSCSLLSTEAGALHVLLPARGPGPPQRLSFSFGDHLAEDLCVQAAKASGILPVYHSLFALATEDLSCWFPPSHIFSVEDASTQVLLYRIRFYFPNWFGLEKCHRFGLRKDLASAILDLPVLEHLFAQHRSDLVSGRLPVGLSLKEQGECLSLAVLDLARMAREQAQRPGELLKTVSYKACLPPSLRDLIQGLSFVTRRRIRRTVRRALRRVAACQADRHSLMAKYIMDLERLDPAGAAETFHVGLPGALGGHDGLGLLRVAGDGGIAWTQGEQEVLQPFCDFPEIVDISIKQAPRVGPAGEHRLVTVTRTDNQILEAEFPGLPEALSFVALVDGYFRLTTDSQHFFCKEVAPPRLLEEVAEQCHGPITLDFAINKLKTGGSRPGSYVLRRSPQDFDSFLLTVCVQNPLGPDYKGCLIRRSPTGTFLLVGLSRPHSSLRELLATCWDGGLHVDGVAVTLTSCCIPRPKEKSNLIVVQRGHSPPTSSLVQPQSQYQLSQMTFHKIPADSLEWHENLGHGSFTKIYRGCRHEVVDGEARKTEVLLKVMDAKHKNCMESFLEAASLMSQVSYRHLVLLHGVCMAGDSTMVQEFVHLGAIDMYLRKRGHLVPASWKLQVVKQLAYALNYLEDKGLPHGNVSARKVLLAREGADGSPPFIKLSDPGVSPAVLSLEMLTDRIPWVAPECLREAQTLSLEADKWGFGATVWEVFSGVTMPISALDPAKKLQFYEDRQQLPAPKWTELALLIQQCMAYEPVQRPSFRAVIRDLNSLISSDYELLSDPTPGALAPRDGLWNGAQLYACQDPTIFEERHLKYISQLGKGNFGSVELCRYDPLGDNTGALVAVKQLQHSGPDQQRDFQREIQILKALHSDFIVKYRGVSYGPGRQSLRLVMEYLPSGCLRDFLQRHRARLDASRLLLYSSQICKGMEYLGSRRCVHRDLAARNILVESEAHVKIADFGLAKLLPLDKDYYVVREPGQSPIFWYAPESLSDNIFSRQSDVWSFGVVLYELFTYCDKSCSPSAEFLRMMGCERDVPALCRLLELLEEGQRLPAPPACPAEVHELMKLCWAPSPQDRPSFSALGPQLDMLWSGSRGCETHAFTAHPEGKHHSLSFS
Protocol: as §1, §2

Sequence of JAK-2 enzyme (O60674 whole entry): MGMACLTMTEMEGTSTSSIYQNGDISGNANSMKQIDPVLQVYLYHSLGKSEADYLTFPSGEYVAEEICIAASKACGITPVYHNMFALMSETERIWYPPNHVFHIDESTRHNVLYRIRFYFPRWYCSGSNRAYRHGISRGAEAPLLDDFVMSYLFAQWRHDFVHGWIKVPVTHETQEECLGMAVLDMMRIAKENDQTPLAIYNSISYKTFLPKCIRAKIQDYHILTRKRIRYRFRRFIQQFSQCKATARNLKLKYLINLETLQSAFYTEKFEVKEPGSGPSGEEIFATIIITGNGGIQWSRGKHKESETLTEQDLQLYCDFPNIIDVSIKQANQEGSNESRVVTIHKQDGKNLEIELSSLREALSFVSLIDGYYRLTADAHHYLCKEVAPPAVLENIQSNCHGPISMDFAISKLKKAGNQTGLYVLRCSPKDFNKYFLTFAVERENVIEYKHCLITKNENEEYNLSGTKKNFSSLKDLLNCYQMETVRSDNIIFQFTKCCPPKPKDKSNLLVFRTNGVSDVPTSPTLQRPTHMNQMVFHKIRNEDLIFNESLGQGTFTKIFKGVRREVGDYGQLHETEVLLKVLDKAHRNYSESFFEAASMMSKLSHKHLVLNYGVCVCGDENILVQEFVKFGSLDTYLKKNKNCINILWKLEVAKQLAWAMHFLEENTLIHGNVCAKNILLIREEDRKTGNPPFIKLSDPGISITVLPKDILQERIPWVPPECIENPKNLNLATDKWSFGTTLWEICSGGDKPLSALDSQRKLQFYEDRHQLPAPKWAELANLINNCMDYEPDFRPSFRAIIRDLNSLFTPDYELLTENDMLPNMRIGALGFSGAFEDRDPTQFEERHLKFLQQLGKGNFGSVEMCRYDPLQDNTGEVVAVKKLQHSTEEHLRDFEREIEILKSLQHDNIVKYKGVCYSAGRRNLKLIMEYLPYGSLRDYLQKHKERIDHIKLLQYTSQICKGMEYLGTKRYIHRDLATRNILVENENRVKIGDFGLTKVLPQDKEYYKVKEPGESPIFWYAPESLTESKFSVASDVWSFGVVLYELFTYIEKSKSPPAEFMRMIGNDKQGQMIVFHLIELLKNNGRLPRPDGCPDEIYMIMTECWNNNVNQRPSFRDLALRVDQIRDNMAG

Ki [1]: < 0.1 µM | Ki [2]: 0.1 to 0.5 µM
SMILES: CN(CC#N)C(=O)c1cc(-c2ncnc3[nH]ccc23)cn1C [Compound 236]
